The subject of experiment [1] is Intraluminal pressure in the Heidenhain pouch. In words: Intraluminal pressure in the Heidenhain pouch of the dog (increase in amplitude of rhythmical contractions). As to conditions: Canis lupus familiaris, iv, fasted lightly restrained conscious, increase in amplitude of rhythmical contractions for at least 4-5 minutes. Type of experiment: in vivo. How it is done:
2. Intraluminal pressure in the Heidenhain pouch of the dog
Pressure changes were recorded via a saline filled catheter inserted, with airtight closure, into the fistula of a chronic Heidenhain pouch of the previously fasted and lightly restrained conscious dog. The catheter was connected to a physiological pressure transducer and pressure changes recorded on a hot wire pen recorder. Compounds were administered when the motility was in a phase of relatively low activity and the dose range determined which induced an increase in the amplitude of rhythmical contractions for a period of at least 4-5 minutes.

The next experiment has as its system Intragastric pressure. In words: Intragastric pressure in the rat (gastric motility, fasted conscious restrained rats). Type of experiment: in vivo. The conditions noted are these: sc, 40 min, s.c., intragastric pressure waves, 40 minute period following dosing. As for the experimental part: 1. Intragastric pressure in the rat
Intragastric pressure changes were recorded from fasted conscious and restrained rats using a saline filled catheter inserted into the lumen of the stomach via a permanent gastric fistula. The catheter was connected to a physiological pressure transducer and pressure changes recorded on a hot wire pen recorder. An index of activity was obtained by measuring the average height of pressure waves during 10 minute periods. Values for 4 such periods were obtained during assessment of spontaneous activity prior to dosing and for the 40 minute period following dosing with compound or vehicle. The Student's "t" test was applied to the mean values obtained for activity prior to and post treatment. Groups of 10 animals were used for each treatment.

Compound `CCN1CC2CCC(C1)C2NC(=O)c1cc(Cl)c(N)cc1OC` (racemic) [Example E5, (±)(8β)-4-Amino-5-chloro-2-methoxy-N-(3-ethyl-3-azabicyclo[3,2,1]octan-8-yl)benzamide] registered an ED50 in experiment [1] of 0.01 mg/kg.

In experiment [1], `COc1cc(N)c(Cl)cc1C(=O)NC1C2CCC1CN(C)C2` (racemic) [Example E1, (±) (8β)-4-Amino-5-chloro-2-methoxy-N-(3-methyl-3-azabicyclo[3,2,1]octan-8-yl)benzamide] showed an ED50 of 0.05 mg/kg.

Take `COc1cc(N)c(Cl)cc1C(=O)NC1C2CCC1CN(C)C2` (racemic) [Example E2, (±) (8α)-4-Amino-5-chloro-2-methoxy-N-(3-methyl-3azabicyclo[3,2,1]octan-8-yl)benzamide]: the ED50 in the experiment with Intragastric pressure came out at 0.5 mg/kg.

For orientation: ED50 means the dose that gives a 50% effect, or the effect in half of the subjects. A lower ED50 goes with greater potency.

The values are drawn from patent US4719217A, “Certain N-azabicycloalkyl-benzamides useful in the treatment of impaired gastro-intestinal motility or emesis” (Beecham Group p.l.c., priority 1985, dated 1988).
